{"source": "patent US20050239656A1", "about": "“Pyridine compounds or salts thereof and herbicides containing the same” (priority 2002, published 2005)"}
{"tested_on": "rice", "experiment": "Test Example 1: foliage treatment, upland pot test", "type": "in vivo, Oryza sativa L.", "conditions": "crop, active ingredient 500 g/ha, observed 18th to 23rd day, 0 = non-treated, 100 = complete kill", "outline": "(§1)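 Upland pot test, foliar. Soybean 0.1–0.4 / wheat 1.3–2.4 / rice 1.2–2.6 / barnyardgrass 1.3–2.8 leaf stage at spraying; 500 L/ha carrier, 0.1% (v/v) spreader. Visual % control, 0 untreated to 100 dead, days 18–23.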", "units": {"Growth controlling degree (%) Rice": "%"}}
{"smiles": "CON=Cc1ccc(CC(=O)N(C)C(c2cnccc2C(F)(F)F)C(C)C)cc1", "note": "(racemic) [I-122]", "Growth controlling degree (%) Rice": 10}
{"tested_on": "prickly sida", "experiment": "Test Example 1: foliage treatment, upland pot test", "type": "in vivo, Sida spinosa L.", "conditions": "active ingredient 500 g/ha, observed 18th to 23rd day, 0 = non-treated, 100 = complete kill", "units": {"Growth controlling degree (%) Prickly sida": "%"}}
{"smiles": "CON=Cc1ccc(CC(=O)N(C)C(c2cnccc2C(F)(F)F)C(C)C)cc1", "note": "(racemic) [I-122]", "Growth controlling degree (%) Prickly sida": 80}
{"tested_on": "corn", "experiment": "Test Example 1: foliage treatment, upland pot test", "type": "in vivo, Zea mays L.", "conditions": "crop, active ingredient 500 g/ha, observed 18th to 23rd day, 0 = non-treated, 100 = complete kill", "outline": "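In this upland pot foliage test, corn plants at 2.1 to 3.2 leaf stages were sprayed by a small size sprayer. The spray was a conventionally formulated wettable powder or emulsifiable concentrate weighed to a set active ingredient amount, diluted in water at 500 L/ha, plus 0.1% (v/v) agricultural spreader. Visual assessment on days 18 to 23 gave growth controlling degree (%), where 0 equals untreated and 100 means complete kill.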", "units": {"Growth controlling degree (%) Corn": "%"}}
{"smiles": "CON=Cc1ccc(CC(=O)N(C)C(c2cnccc2C(F)(F)F)C(C)C)cc1", "note": "(racemic) [I-122]", "Growth controlling degree (%) Corn": 80}
{"tested_on": "wheat", "experiment": "Test Example 1: foliage treatment, upland pot test", "type": "in vivo, Triticum spp.", "conditions": "crop, active ingredient 500 g/ha, observed 18th to 23rd day, 0 = non-treated, 100 = complete kill", "excerpt": "Upland field soil was put into a 1/170,000 ha pot, and seed of various plants were sown. Then, when the plants reached predetermined leaf stages ((1) barnyardgrass: 1.3 to 2.8 leaf stages, (2) crabgrass: 1.0 to 2.8 leaf stages, (3) green foxtail: 1.3 to 2.6 leaf stages, (4) redroot pigweed: 0.1 to 1.2 leaf stages, (5) prickly sida: 0.1 to 1.2 leaf stages, (6) velvetleaf: 0.1 to 1.2 leaf stages, (7) tall morningglory: 0.1 to 1.5 leaf stages, (8) rice: 1.2 to 2.6 leaf stages, (9) wheat: 1.3 to 2.4 leaf stages, (10) corn, 2.1 to 3.2 leaf stages, (11) soybean: 0.1 to 0.4 leaf stage), a wettable powder or emulsifiable concentrate having the compound of the present invention formulated in accordance with a usual formulation method, was weighed so that the active ingredient would be a predetermined amount, and diluted with water in an amount of 500 L/ha. To the diluted solution, 0.1% (v/v) of agricultural spreader was added. The herbicide thus adjusted was applied by a small size sprayer for foliage treatment. On the 18th to 23rd days after the application of the herbicide, the growth of the respective plants was visually observed, and the herbicidal effects were evaluated by the growth controlling degrees (%) ranging from 0 (equivalent to the non-treated plot) to 100 (complete kill), whereby the results shown in Table 3, were obtained.", "units": {"Growth controlling degree (%) wheat": "%"}}
{"smiles": "CON=Cc1ccc(CC(=O)N(C)C(c2cnccc2C(F)(F)F)C(C)C)cc1", "note": "(racemic) [I-122]", "Growth controlling degree (%) wheat": 0}
{"tested_on": "crabgrass", "experiment": "Test Example 1: foliage treatment, upland pot test", "type": "in vivo, Digitaria sanguinalis L.", "conditions": "active ingredient 500 g/ha, observed 18th to 23rd day, 0 = non-treated, 100 = complete kill", "units": {"Growth controlling degree (%) Crabgrass": "%"}}
{"smiles": "CON=Cc1ccc(CC(=O)N(C)C(c2cnccc2C(F)(F)F)C(C)C)cc1", "note": "(racemic) [I-122]", "Growth controlling degree (%) Crabgrass": 95}
{"tested_on": "japanese bulrush", "experiment": "Test Example 3: paddy pot test, application under submerged conditions", "type": "in vivo, Scirpus juncoides", "conditions": "active ingredient 500 g/ha; submerged application at 0.5 leaf stage; visually observed 14 days after application; 0 = non-treated, 100 = complete kill", "outline": "(§2)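 Visual growth-control rating (0 = untreated, 100 = complete kill) 14 days after treatment. The formulated compound, as a diluted wettable powder or emulsifiable concentrate, went into 3–4 cm flood water at a predetermined active-ingredient dose once the weeds reached 0.5 leaf stage (wapato: primary leaf stage).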", "units": {"Growth controlling degree (%) Japanese bulrush": "%"}}
{"smiles": "CON=Cc1ccc(CC(=O)N(C)C(c2cnccc2C(F)(F)F)C(C)C)cc1", "note": "(racemic) [I-122]", "Growth controlling degree (%) Japanese bulrush": 100}
{"tested_on": "crabgrass", "experiment": "Test Example 2: soil surface treatment, upland pot test", "type": "in vivo, Digitaria sanguinalis L.", "conditions": "active ingredient 500 g/ha, observed 20th to 28th day", "outline": "(§3)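 Upland soil in pots of 1/170,000 ha is sown; on day 1 after sowing the formulated compound (wettable powder or emulsifiable concentrate, predetermined a.i. amount, water volume 1,500 L/ha) is applied to the soil surface with a small sprayer. Percent control is judged by eye 20–28 days later.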", "units": {"Growth controlling degree (%) Crabgrass": "%"}}
{"smiles": "CON=Cc1ccc(CC(=O)N(C)C(c2cnccc2C(F)(F)F)C(C)C)cc1", "note": "(racemic) [I-122]", "Growth controlling degree (%) Crabgrass": 100}
{"tested_on": "redroot pigweed", "experiment": "Test Example 2: soil surface treatment, upland pot test", "type": "in vivo, Amaranthus retroflexus L.", "conditions": "active ingredient 500 g/ha, observed 20th to 28th day", "outline": "as §3", "units": {"Growth controlling degree (%) Redroot pigweed": "%"}}
{"smiles": "CON=Cc1ccc(CC(=O)N(C)C(c2cnccc2C(F)(F)F)C(C)C)cc1", "note": "(racemic) [I-122]", "Growth controlling degree (%) Redroot pigweed": 60}
{"tested_on": "redroot pigweed", "experiment": "Test Example 1: foliage treatment, upland pot test", "type": "in vivo, Amaranthus retroflexus L.", "conditions": "active ingredient 500 g/ha, observed 18th to 23rd day, 0 = non-treated, 100 = complete kill", "units": {"Growth controlling degree (%) Redroot pigweed": "%"}}
{"smiles": "CON=Cc1ccc(CC(=O)N(C)C(c2cnccc2C(F)(F)F)C(C)C)cc1", "note": "(racemic) [I-122]", "Growth controlling degree (%) Redroot pigweed": 70}
{"tested_on": "barnyardgrass", "experiment": "Test Example 3: paddy pot test, application under submerged conditions", "type": "in vivo, Echinochloa crus-galli L.", "conditions": "active ingredient 500 g/ha; submerged application at 0.5 leaf stage; visually observed 14 days after application; 0 = non-treated, 100 = complete kill", "outline": "as §2", "units": {"Growth controlling degree (%) Barnyardgrass": "%"}}
{"smiles": "CON=Cc1ccc(CC(=O)N(C)C(c2cnccc2C(F)(F)F)C(C)C)cc1", "note": "(racemic) [I-122]", "Growth controlling degree (%) Barnyardgrass": 98}
{"tested_on": "rice (var. Nihonbare)", "experiment": "Test Example 3: paddy pot test, transplanted rice", "type": "in vivo, Oryza sativa L.", "conditions": "active ingredient 500 g/ha, applied 4th day after transplantation, visually observed 21st day after application, 0 = non-treated, 100 = complete kill", "outline": "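Rice (var. Nihonbare) at 2 leaf stage transplanted 3 cm deep into puddled paddy soil under 3–4 cm flooding; on day 4 after transplanting, diluted wettable powder or emulsifiable concentrate applied by pipette under submerged conditions at a set active-ingredient dose. Growth scored visually 21 days after application, 0 (untreated) to 100 (complete kill) %.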", "units": {"Growth controlling degree (%) Rice": "%"}}
{"smiles": "CON=Cc1ccc(CC(=O)N(C)C(c2cnccc2C(F)(F)F)C(C)C)cc1", "note": "(racemic) [I-122]", "Growth controlling degree (%) Rice": 10}
{"tested_on": "green foxtail", "experiment": "Test Example 1: foliage treatment, upland pot test", "type": "in vivo, Setaria viridis L.", "conditions": "active ingredient 500 g/ha, observed 18th to 23rd day, 0 = non-treated, 100 = complete kill", "units": {"Growth controlling degree (%) Green foxtail": "%"}}
{"smiles": "CON=Cc1ccc(CC(=O)N(C)C(c2cnccc2C(F)(F)F)C(C)C)cc1", "note": "(racemic) [I-122]", "Growth controlling degree (%) Green foxtail": 60}
{"tested_on": "barnyardgrass", "experiment": "Test Example 2: soil surface treatment, upland pot test", "type": "in vivo, Echinochloa crus-galli L.", "conditions": "active ingredient 500 g/ha, observed 20th to 28th day", "outline": "as §3", "units": {"Growth controlling degree (%) Barnyardgrass": "%"}}
{"smiles": "CON=Cc1ccc(CC(=O)N(C)C(c2cnccc2C(F)(F)F)C(C)C)cc1", "note": "(racemic) [I-122]", "Growth controlling degree (%) Barnyardgrass": 98}
{"tested_on": "corn", "experiment": "Test Example 2: soil surface treatment, upland pot test", "type": "in vivo, Zea mays L.", "conditions": "active ingredient 500 g/ha, observed 20th to 28th day", "outline": "as §3", "units": {"Growth controlling degree (%) Corn": "%"}}
{"smiles": "CON=Cc1ccc(CC(=O)N(C)C(c2cnccc2C(F)(F)F)C(C)C)cc1", "note": "(racemic) [I-122]", "Growth controlling degree (%) Corn": 10}
{"tested_on": "rice", "experiment": "Test Example 2: soil surface treatment, upland pot test", "type": "in vivo, Oryza sativa L.", "conditions": "active ingredient 500 g/ha, observed 20th to 28th day", "outline": "as §3", "units": {"Growth controlling degree (%) Rice": "%"}}
{"smiles": "CON=Cc1ccc(CC(=O)N(C)C(c2cnccc2C(F)(F)F)C(C)C)cc1", "note": "(racemic) [I-122]", "Growth controlling degree (%) Rice": 20}
{"tested_on": "soybean", "experiment": "Test Example 1: foliage treatment, upland pot test", "type": "in vivo, Glycine max Merr.", "conditions": "crop, active ingredient 500 g/ha, observed 18th to 23rd day, 0 = non-treated, 100 = complete kill", "outline": "as §1", "units": {"Growth controlling degree (%) Soybean": "%"}}
{"smiles": "CON=Cc1ccc(CC(=O)N(C)C(c2cnccc2C(F)(F)F)C(C)C)cc1", "note": "(racemic) [I-122]", "Growth controlling degree (%) Soybean": 80}
{"tested_on": "soybean", "experiment": "Test Example 2: soil surface treatment, upland pot test", "type": "in vivo, Glycine max Merr.", "conditions": "active ingredient 500 g/ha, observed 20th to 28th day", "outline": "as §3", "units": {"Growth controlling degree (%) Soyabean": "%"}}
{"smiles": "CON=Cc1ccc(CC(=O)N(C)C(c2cnccc2C(F)(F)F)C(C)C)cc1", "note": "(racemic) [I-122]", "Growth controlling degree (%) Soyabean": 10}
{"tested_on": "green foxtail", "experiment": "Test Example 2: soil surface treatment, upland pot test", "type": "in vivo, Setaria viridis L.", "conditions": "active ingredient 500 g/ha, observed 20th to 28th day", "outline": "as §3", "units": {"Growth controlling degree (%) Green foxtail": "%"}}
{"smiles": "CON=Cc1ccc(CC(=O)N(C)C(c2cnccc2C(F)(F)F)C(C)C)cc1", "note": "(racemic) [I-122]", "Growth controlling degree (%) Green foxtail": 100}
{"tested_on": "velvetleaf", "experiment": "Test Example 1: foliage treatment, upland pot test", "type": "in vivo, Abutilon theophrasti MEDIC.", "conditions": "active ingredient 500 g/ha, observed 18th to 23rd day, 0 = non-treated, 100 = complete kill", "units": {"Growth controlling degree (%) Velvetleaf": "%"}}
{"smiles": "CON=Cc1ccc(CC(=O)N(C)C(c2cnccc2C(F)(F)F)C(C)C)cc1", "note": "(racemic) [I-122]", "Growth controlling degree (%) Velvetleaf": 70}
{"tested_on": "barnyardgrass", "experiment": "Test Example 1: foliage treatment, upland pot test", "type": "in vivo, Echinochloa crus-galli L.", "conditions": "active ingredient 500 g/ha, observed 18th to 23rd day, 0 = non-treated, 100 = complete kill", "outline": "as §1", "units": {"Growth controlling degree (%) Barnyardgrass": "%"}}
{"smiles": "CON=Cc1ccc(CC(=O)N(C)C(c2cnccc2C(F)(F)F)C(C)C)cc1", "note": "(racemic) [I-122]", "Growth controlling degree (%) Barnyardgrass": 80}
{"tested_on": "velvetleaf", "experiment": "Test Example 2: soil surface treatment, upland pot test", "type": "in vivo, Abutilon theophrasti MEDIC.", "conditions": "active ingredient 500 g/ha, observed 20th to 28th day", "outline": "as §3", "units": {"Growth controlling degree (%) Velvetleaf": "%"}}
{"smiles": "CON=Cc1ccc(CC(=O)N(C)C(c2cnccc2C(F)(F)F)C(C)C)cc1", "note": "(racemic) [I-122]", "Growth controlling degree (%) Velvetleaf": 30}
{"tested_on": "prickly sida", "experiment": "Test Example 2: soil surface treatment, upland pot test", "type": "in vivo, Sida spinosa L.", "conditions": "active ingredient 500 g/ha, observed 20th to 28th day", "outline": "as §3", "units": {"Growth controlling degree (%) Prickly sida": "%"}}
{"smiles": "CON=Cc1ccc(CC(=O)N(C)C(c2cnccc2C(F)(F)F)C(C)C)cc1", "note": "(racemic) [I-122]", "Growth controlling degree (%) Prickly sida": 50}
